Reference: paper PMC9331314, “Synthesis and Antiviral Properties of Camphor-Derived Iminothiazolidine-4-Ones and 2,3-Dihydrothiazoles” (Molecules, 2022)
Read-outs that look alike come from different tables or passages of the source.

What was measured:
[1] = test system: vaccinia virus (strain Copenhagen)
[2] = test system: Vero cells
[3] = in vitro; conditions: African green monkey
[4] = in vitro; conditions: human
[5] = test system: vaccinia virus (strain Copenhagen); assay: microbe, parasite or virus in culture; conditions: Orthopoxvirus vaccinia, Vero, 96 h
[6] = test system: Marburg pseudovirus (GP MARV); assay: microbe, parasite or virus in culture; conditions: 24 h
[7] = test system: Marburg pseudovirus (GP MARV)
[8] = test system: HEK293FT cells
[9] = test system: VSV-GP-EboV; conditions: cited from earlier work
[10] = test system: VV; conditions: cited from earlier work
[11] = test system: H1N1; conditions: cited from earlier work

SMILES: CC1(C)[C@H]2CC[C@]1(C)/C(=N/NC(=S)Nc1ccccc1)C2 [2′a, (E)-N-phenyl-2-((1S,4S)-1,7,7-trimethylbicyclo[2.2.1]heptan-2-ylidene)hydrazinecarbothioamide]
- IC50 [1]: lower micromolar range
- SI (CC50/IC50) [1]: 4
- CC50 [2]: quite toxic
- CC50 [3]: 16 ± 2.8 µM
- CC50 [4]: 280 ± 38.6 µM
- IC50 [5]: 4.3 ± 1.8 µM
- IC50 [6]: 5.9 ± 2.1 µM

SMILES: CNC(=S)N/N=C1\C[C@@H]2CC[C@@]1(C)C2(C)C [2′d, (E)-N-methyl-2-((1S,4S)-1,7,7-trimethylbicyclo[2.2.1]heptan-2-ylidene)hydrazinecarbothioamide]
- IC50 [1]: low
- SI (CC50/IC50) [1]: 5
- CC50 [2]: least cytotoxicity
- SI (CC50/IC50) [7]: 2
- CC50 [3]: 130 ± 14.2 µM
- CC50 [4]: 66.9 ± 18.2 µM
- IC50 [5]: 35 ± 5.8 µM
- IC50 [6]: 29.2 ± 4.2 µM

SMILES: CC1(C)[C@@H]2CC[C@@]1(C)/C(=N/NC(=S)Nc1ccccc1)C2 [Compound 2a, (E)-N-phenyl-2-((1R,4R)-1,7,7-trimethylbicyclo[2.2.1]heptan-2-ylidene)hydrazinecarbothioamide]
- IC50 [1]: lower micromolar range
- SI (CC50/IC50) [1]: 4
- CC50 [2]: quite toxic
- SI (CC50/IC50) [7]: 2
- CC50 [3]: 24 ± 3.4 µM
- CC50 [4]: 700 ± 43.1 µM
- IC50 [5]: 6.7 ± 0.9 µM
- IC50 [6]: 398 ± 33.2 µM

SMILES: C=CCNC(=S)N/N=C1\C[C@H]2CC[C@]1(C)C2(C)C [Compound 2b, (E)-N-allyl-2-((1R,4R)-1,7,7-trimethylbicyclo[2.2.1]heptan-2-ylidene)hydrazinecarbothioamide]
- IC50 [1]: low
- CC50 [2]: least cytotoxicity
- SI (CC50/IC50) [7]: 5
- CC50 [3]: 200 ± 23.8 µM
- CC50 [4]: 128 ± 37.8 µM
- IC50 [6]: 24.5 ± 3.8 µM

SMILES: CNC(=S)N/N=C1\C[C@H]2CC[C@]1(C)C2(C)C [Compound 2d, (E)-N-methyl-2-((1R,4R)-1,7,7-trimethylbicyclo[2.2.1]heptan-2-ylidene)hydrazinecarbothioamide]
- IC50 [1]: low
- SI (CC50/IC50) [1]: 2
- CC50 [2]: least cytotoxicity
- CC50 [3]: 150 ± 17.9 µM
- CC50 [4]: 62.8 ± 17.1 µM
- IC50 [5]: 97 ± 19.8 µM
- IC50 [6]: 28 ± 4.2 µM

SMILES: CC12CCC(CC1=NN=C1SCC(=O)N1c1ccccc1)C2(C)C [Compound 3a, ((Z)-3-phenyl-2-((E)-((1R,4R)-1,7,7-trimethylbicyclo[2.2.1]heptan-2-ylidene)hydrazono)thiazolidin-4-one]
- SI (CC50/IC50) [7]: 5
- CC50 [8]: least toxicity
- CC50 [3]: 290 ± 39.1 µM
- CC50 [4]: 1260 ± 52.7 µM
- IC50 [6]: 237 ± 5.9 µM

SMILES: C=CCN1C(=O)C(C)(C)S/C1=N/N=C1/C[C@H]2CC[C@]1(C)C2(C)C [Compound 4b, (Z)-3-allyl-5,5-dimethyl-2-((E)-((1R,4R)-1,7,7-trimethylbicyclo[2.2.1]heptan-2-ylidene)hydrazono)thiazolidin-4-one]
- SI (CC50/IC50) [7]: 4
- CC50 [8]: least toxicity
- CC50 [4]: 959.5 ± 6.8 µM
- IC50 [6]: 255 ± 45 µM

SMILES: CN1C(=O)C(C)(C)S/C1=N/N=C1/C[C@H]2CC[C@]1(C)C2(C)C [Compound 4d, (Z)-3,5,5-trimethyl-2-((E)-((1R,4R)-1,7,7-trimethylbicyclo[2.2.1]heptan-2-ylidene)hydrazono)thiazolidin-4-one]
- IC50 [1]: highest activity
- SI (CC50/IC50) [1]: 24
- CC50 [2]: low toxicity
- SI (CC50/IC50) [7]: 13
- CC50 [3]: 310 ± 38.7 µM
- CC50 [4]: 514 ± 34.1 µM
- IC50 [5]: 12.7 ± 1.4 µM
- IC50 [6]: 39 ± 3.3 µM

SMILES: CC1(C)[C@@H]2CC[C@@]1(C)/C(=N/N=c1/scc(-c3ccc(Cl)cc3)n1-c1ccccc1)C2 [Compound 5a, (E)-4-(4-chlorophenyl)-3-phenyl-2-((E)-((1R,4R)-1,7,7-trimethylbicyclo[2.2.1]heptan-2-ylidene)hydrazono)-2,3-dihydrothiazole]
- SI (CC50/IC50) [7]: 8
- CC50 [8]: least toxicity
- CC50 [3]: 229 ± 24.7 µM
- CC50 [4]: 872 ± 52.8 µM
- IC50 [6]: 103 ± 6.9 µM

SMILES: Cn1c(-c2ccc(Cl)cc2)cs/c1=N/N=C1\C[C@H]2CC[C@]1(C)C2(C)C [Compound 5d, (E)-4-(4-chlorophenyl)-3-methyl-2-((E)-((1R,4R)-1,7,7-trimethylbicyclo[2.2.1]heptan-2-ylidene)hydrazono)-2,3-dihydrothiazole]
- CC50 [2]: least toxic
- SI (CC50/IC50) [7]: 10
- CC50 [3]: 144 ± 18.7 µM
- CC50 [4]: 107 ± 5.3 µM
- IC50 [5]: 2.6 ± 0.2 µM
- IC50 [6]: 10.7 ± 2.7 µM

SMILES: Cn1c(-c2ccccc2)cs/c1=N/N=C1\C[C@H]2CC[C@]1(C)C2(C)C [Compound 8d, (E)-3-methyl-4-phenyl-2-((E)-((1R,4R)-1,7,7-trimethylbicyclo[2.2.1]heptan-2-ylidene)hydrazono)-2,3-dihydrothiazole]
- SI (CC50/IC50) [1]: 9
- SI (CC50/IC50) [7]: <2
- CC50 [3]: 14 ± 2.4 µM
- CC50 [4]: < 44.2 µM
- IC50 [5]: 1.5 ± 0.2 µM
- IC50 [6]: 26.5 ± 5.9 µM

SMILES: CCN1CCN(CCC(=O)N[C@@H]2C[C@H]3CC[C@]2(C)C3(C)C)CC1 [IIIa]
- IC50 [9]: 0.6 µM
- SI [9]: 908

SMILES: CC1(C)[C@@H]2CC[C@@]1(C)[C@H](NC(=O)CN1CCOCC1)C2 [IIIb]
- IC50 [9]: 5.7 µM
- SI [9]: 147
- IC50 [10]: 12.5 µM
- SI [10]: 40

SMILES: CC1(C)[C@H]2CC[C@]1(C)[C@H](OC(=O)CN1CCOCC1)C2 [IIa]
- IC50 [9]: 24.9 µM
- SI [9]: 13
- IC50 [10]: 17.9 µM
- SI [10]: 56
- IC50 [11]: 7.1 µM
- SI [11]: 82

SMILES: CN1CCN(CC(=O)O[C@@H]2C[C@@H]3CC[C@@]2(C)C3(C)C)CC1 [IIb]
- IC50 [9]: 6.8 µM
- SI [9]: 46
- IC50 [11]: 4.4 µM
- SI [11]: 23

SMILES: CC1(C)[C@@H]2CC[C@@]1(CS(=O)(=O)N1CCOCC1)C(=O)C2 [IVa]
- IC50 [9]: 0.9 µM
- SI [9]: 921

SMILES: CC1(C)[C@@H]2CC[C@@]1(CS(=O)(=O)n1cncn1)C(=O)C2 [IVb]
- IC50 [9]: 1 µM
- SI [9]: 1764

SMILES: CC1CCN(CCC(=O)O[C@@H]2C[C@@H]3CC[C@@]2(C)C3(C)C)CC1 [Ia]
- IC50 [9]: 0.3 µM
- SI [9]: 956

SMILES: CC1(C)[C@H]2CC[C@]1(C)[C@H](OC(=O)CCN1CCOCC1)C2 [Ib]
- IC50 [10]: 3.5 µM
- SI [10]: 48
- IC50 [11]: 12.2 µM
- SI [11]: 45

SMILES: CN1CCN(CCC(=O)O[C@@H]2C[C@@H]3CC[C@@]2(C)C3(C)C)CC1 [Ic]
- IC50 [9]: 0.3 µM
- SI [9]: 870
- IC50 [11]: 1.9 µM
- SI [11]: 215

SMILES: CC1(C)[C@@H]2CC[C@@]1(C)/C(=N/Nc1nc(-c3ccc(Cl)cc3)cs1)C2 [Va]
- IC50 [10]: 2.7 µM
- SI [10]: 24

SMILES: CC1(C)[C@@H]2CC[C@@]1(C)/C(=N/Nc1nc(-c3ccc(Br)cc3)cs1)C2 [Vb]
- IC50 [10]: 2.4 µM
- SI [10]: 32

SMILES: COc1ccc(-c2csc(N/N=C3\C[C@H]4CC[C@]3(C)C4(C)C)n2)cc1 [Vc]
- IC50 [10]: 3.7 µM
- SI [10]: 26
